# Patent US8586307B2, “Methods for diagnosing epigenetic, transgenerational effects of environmental toxicants on mammalian germ-lines and treating associated diseases” (priority 2005, dated 2013)
# Experiments:
# epididymal sperm = conditions: rat, in vivo
# Method: In Vivo Procedures: Gestating outbred Sprague-Dawley and inbred Fisher mother rats from timed, pregnant colonies housed at the Washington State University Vivarium, were given intraperitoneal injections of vinclozolin (100 mg/kg/day) and methoxychlor (200 mg/kg/day) from embryonic day 8-15 (E8-E15, sperm positive vaginal smear date=E0) of gestation (F0 generation) as previously described. Gestating mothers administered vehicle, sesame oil or DMSO, served as controls. At least 6 lines (individual F0 injected females) were generated for controls and treated groups for these analyses. Male rats from control and treated groups were collected at P60-P180 for analyses. F1 treated males were bred to F1 treated females to generate the F2 treated generation and F2 treated males were bred to F2 treated females to generate the F3 generation and the F3 were bred in the same manner to generate the F4 generation. Rats for the control groups were bred in the same manner for all the generations. No inbreeding or sibling crosses were generated. The outcross group (VOC) were generated by breeding the F2 treated males with wild-type females (total of 6 litters) and reverse outcross group (RVOC) was generated by breeding F2 treated females with wild-type males (total of 3 litters). Control (n=4) and treated (n=4) male offspring from the F1 generation from Fisher strain rats were collected at P6 for DNA methylation analysis, see below. All procedures have been approved by the Washington State University Animal Care Committee. […]
# Sperm Motility and Concentration Analysis: Animals were sacrificed and cauda epididymal sperm motility was determined using cauda epididymal sperm. […] All the motile sperm including rapid progressive, slow progressive and non-progressive were counted according to WHO category. Percent ratio of the motile sperm to the total number of sperm including immotile sperm was calculated. Epididymal sperm count was determined using the same epididymis sample according to a previously described method with some modifications.
# E16 testis = experiment: Microarray gene expression analysis of embryonic testis; type: in vivo, rat; conditions: F1 and F2 generation E16 testis vs control
# Source text: Microarray analysis: RNA was collected from embryonic day […] 16 (E16) testis from control and E16 vinclozolin F1 and F2 generation animals as described above for Example I. RNA was hybridized to the Affymetrix (Affymetrix, Santa Clara, Calif.) rat 230A gene chip. The Genomics Core in the Center for Reproductive Biology at Washington State University, Pullman, Wash., performed the analysis as previously described, and incorporated by reference herein [149, 150]. Briefly, RNA from the cells was reverse transcribed into cDNA then was transcribed into biotin labeled RNA. Biotin labeled RNA was then hybridized to the Affymetrix rat 230A gene chips. Each gene set is composed of 16 pairs of […] oligonucleotides, with one sense strand specific for the gene and one anti-sense strand with single point mutations for use as a comparative negative control. Biotinalated RNA was then visualized by labeling with phycoerythrin-coupled avidin. The microarray was scanned on a Hewlett-Packard Gene Array Scanner (Hewlett-Packard Co., Palo Alto, Calif.).
# Bioinformatics: The majority of the data analysis was performed using the Affymetrix Microarray Suite Software (Affymetrix, Santa Clara, Calif.). […] Basic expression analysis was determined by accessing the Affymetrix database through the Microarray Suite Software. […]
smiles,measurement,setting,value
C=CC1(C)OC(=O)N(c2cc(Cl)cc(Cl)c2)C1=O (centres unmarked) [vinclozolin],sperm forward motility reduced,epididymal sperm; male,approximately 20%
same,sperm numbers reduced,epididymal sperm; male,approximately 20%
same,sperm number and motility in outcross (VOC) males,epididymal sperm,decrease
same,"expression of Fadd, Pbm1b, Rps12 and Waspip",E16 testis,increased expression
same,"expression of ankyrin 28, Ncstn, Rab12 and Lrrn6a",E16 testis,reduced expression
